Biological target: T1, human PTH1 receptor (Homo sapiens, UniProt Q03431)
T1 sequence (Q03431 27-593): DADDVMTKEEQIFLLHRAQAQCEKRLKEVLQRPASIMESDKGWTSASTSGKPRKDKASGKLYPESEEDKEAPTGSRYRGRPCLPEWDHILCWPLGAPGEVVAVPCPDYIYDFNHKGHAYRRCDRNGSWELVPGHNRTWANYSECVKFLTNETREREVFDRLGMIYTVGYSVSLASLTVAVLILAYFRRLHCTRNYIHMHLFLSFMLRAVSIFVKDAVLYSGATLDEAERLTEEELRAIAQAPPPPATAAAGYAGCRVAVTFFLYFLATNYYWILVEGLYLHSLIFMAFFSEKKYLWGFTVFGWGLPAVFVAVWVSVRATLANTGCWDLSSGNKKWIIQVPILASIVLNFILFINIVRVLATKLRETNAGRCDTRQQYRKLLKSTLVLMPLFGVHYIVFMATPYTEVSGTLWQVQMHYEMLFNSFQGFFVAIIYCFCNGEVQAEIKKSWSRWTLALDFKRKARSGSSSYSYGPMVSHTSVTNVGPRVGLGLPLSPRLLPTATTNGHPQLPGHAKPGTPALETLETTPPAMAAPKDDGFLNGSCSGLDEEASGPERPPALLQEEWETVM
Test: In vitro cAMP signal activity in HKRK-B7 cells (LLC-PK1 cells overexpressing the human PTH1 receptor)
Assay type: cell-based
Conditions: HKRK-B7 cells; compound at 1×10^−3 M; […]; 0.1 µM

SMILES	cAMP production activity (%)
COCCOC(=O)N1CCCC(C2=NC3(CCN(S(=O)(=O)c4cccc(Cl)c4)CC3)C(=O)N2)C1 (stereo not drawn) [Compound 460, 3-[8-(3-Chloro-benzenesulfonyl)-4-oxo-1,3,8-triaza-spiro[4.5]dec-1-en-2-yl]-piperidine-1-carboxylic acid 2-methoxy-ethyl ester]	18%

Same assay, conditions: HKRK-B7 cells; compound at 1×10^−3 M; cAMP produced as percentage of that produced by hPTH(1-34) at 100 nM

SMILES	cAMP production activity (%)
Cc1cc(N2CCOC2=O)ccc1CCS(=O)(=O)N1CCC2(CC1)N=C(C1CCC(C)CC1)NC2=O (stereo not drawn) [Compound 865, 2-(4-methyl-cyclohexyl)-8-{2-[2-methyl-4-(2-oxo-oxazolidin-3-yl)-phenyl]-ethanesulfonyl}-1,3,8-triaza-spiro[4.5]dec-1-en-4-one]	8.9%
Cc1cc(OCCC(O)CO)ccc1/C=C/S(=O)(=O)N1CCC2(CC1)N=C(c1cccc(C(F)(F)F)c1F)NC2=O (stereo not drawn) [Compound 247, 8-{(E)-2-[4-(3,4-Dihydroxy-butoxy)-2-methyl-phenyl]-ethenesulfonyl}-2-(2-fluoro-3-trifluoromethyl-phenyl)-1,3,8-triaza-spiro[4.5]dec-1-en-4-one]	81%
Cc1cc(C(=O)N(C)C)ccc1CCS(=O)(=O)N1CCC2(CC1)N=C(c1ccc(OC(F)(F)F)cc1)NC2=O [Compound 106, 3,N,N-trimethyl-4-{2-[4-oxo-2-(4-trifluoromethoxy-phenyl)-1,3,8-triaza-spiro[4.5]dec-1-ene-8-sulfonyl]-ethyl}-benzamide]	94%
[2H]C([2H])([2H])C([2H])([2H])C([2H])([2H])C([2H])([2H])Oc1cc(C2=NC3(CCN(S(=O)(=O)/C=C/c4c(C)cc(C(=O)N5CCC(C)(O)CC5)cc4C)CC3)C(=O)N2)cc(C(F)(F)F)c1 [Compound 1233, 2-(3-[1,1,2,2,3,3,4,4,4-^2H9]butoxy-5-trifluoromethyl-phenyl)-8-{(E)-2-[4-(4-hydroxy-4-methyl-piperidine-1-carbonyl)-2,6-dimethyl-phenyl]-ethenesulfonyl}-1,3,8-triaza-spiro[4.5]dec-1-en-4-one]	78%
Cc1cc(OCCC(O)CO)ccc1CCS(=O)(=O)N1CCC2(CC1)N=C(c1cccc(C(F)(F)F)c1)NC2=O (stereo not drawn) [Compound 284, 8-{2-[4-(3,4-dihydroxy-butoxy)-2-methyl-phenyl]-ethanesulfonyl}-2-(3-trifluoromethyl-phenyl)-1,3,8-triaza-spiro[4.5]dec-1-en-4-one]	82%
Cc1cc(S(=O)(=O)NCCCCO)ccc1CCS(=O)(=O)N1CCC2(CC1)N=C(c1cccc(OC(F)(F)F)c1)NC2=O [Compound 287, N-(4-hydroxy-butyl)-3-methyl-4-{2-[4-oxo-2-(3-trifluoromethoxy-phenyl)-1,3,8-triaza-spiro[4.5]dec-1-ene-8-sulfonyl]-ethyl}-benzenesulfonamide]	58%
Cc1cc2cc(C)c1CCS(=O)(=O)N1CCC3(CC1)N=C(CCCC/C=C/CCCCCCCC(=O)N2C)NC3=O [Compound 1444]	12%
Cc1cc(C(=O)N2CCC(C)(O)CC2)cc(C)c1/C=C/S(=O)(=O)N1CCC2(CC1)N=C(c1ccc(C(F)(F)F)c(OCC(F)(F)C(F)(F)F)c1)NC2=O [Compound 1228, 8-{(E)-2-[4-(4-hydroxy-4-methyl-piperidine-1-carbonyl)-2,6-dimethyl-phenyl]-ethenesulfonyl}-2-[3-(2,2,3,3,3-pentafluoro-propoxy)-4-trifluoromethyl-phenyl]-1,3,8-triaza-spiro[4.5]dec-1-en-4-one]	68%
Cc1cc(OC[C@H](O)CO)cc(C)c1/C=C/S(=O)(=O)N1CCC2(CC1)N=C(c1cccc(C(F)(F)F)c1F)NC2=O [Compound 243, 8-{(E)-2-[4-((R)-2,3-dihydroxy-propoxy)-2,6-dimethyl-phenyl]-ethenesulfonyl}-2-(2-fluoro-3-trifluoromethyl-phenyl)-1,3,8-triaza-spiro[4.5]dec-1-en-4-one]	80%
Cc1cc(N2CCC2=O)ccc1CCS(=O)(=O)N1CCC2(CC1)N=C(C1CCCCC1)NC2=O [Compound 861, 2-cyclohexyl-8-{2-[2-methyl-4-(2-oxo-azetidin-1-yl)-phenyl]-ethanesulfonyl}-1,3,8-triaza-spiro[4.5]dec-1-en-4-one]	36%
Cc1cc2c(ccn2C[C@@H](O)CO)c(C)c1CCS(=O)(=O)N1CCC2(CC1)N=C(C1CCC(CCC(F)(F)F)CC1)NC2=O (stereo partly drawn) [Compound 791, 8-{2-[1-((R)-2,3-dihydroxy-propyl)-4,6-dimethyl-1H-indol-5-yl]-ethanesulfonyl}-2-[4-(3,3,3-trifluoro-propyl)-cyclohexyl]-1,3,8-triaza-spiro[4.5]dec-1-en-4-one]	6.1%
CCC[S+]([O-])CCCCCC1=NC2(CCN(S(=O)(=O)/C=C/c3c(C)cc(N(C)C(N)=O)cc3C)CC2)C(=O)N1 (stereo not drawn) [Compound 1316, 1-[3,5-Dimethyl-4-((E)-2-{4-oxo-2-[5-(propane-1-sulfinyl)-pentyl]-1,3,8-triaza-spiro[4.5]dec-1-ene-8-sulfonyl}-vinyl)-phenyl]-1-methyl-urea]	2.9%
O=C(CO)NCc1ccc(CCS(=O)(=O)N2CCC3(CC2)N=C(C2CCCCC2)NC3=O)cc1 [Compound 659, N-{4-[2-(2-cyclohexyl-4-oxo-1,3,8-triaza-spiro[4.5]dec-1-ene-8-sulfonyl)-ethyl]-benzyl}-2-hydroxy-acetamide]	46%
Cc1cc(C(=O)N(C)C)ccc1CCS(=O)(=O)N1CCC2(CC1)N=C(c1cccc(C(F)(F)F)c1C)NC2=O [Compound 111, 3,N,N-trimethyl-4-{2-[2-(2-methyl-3-trifluoromethyl-phenyl)-4-oxo-1,3,8-triaza-spiro[4.5]dec-1-ene-8-sulfonyl]-ethyl}-benzamide]	93%
CC(=O)Nc1ccc(CCS(=O)(=O)N2CCC3(CC2)N=C(C2CCC(CCCCl)CC2)NC3=O)c(C)c1 (stereo not drawn) [Compound 1065, N-[4-(2-{2-[4-(3-chloro-propyl)-cyclohexyl]-4-oxo-1,3,8-triaza-spiro[4.5]dec-1-ene-8-sulfonyl}-ethyl)-3-methyl-phenyl]-acetamide]	83%
Cc1cc(CNC(=O)OC(C)(C)C)ccc1CCS(=O)(=O)N1CCC2(CC1)N=C(C1CCOCC1)NC2=O [Compound 165, (3-methyl-4-{2-[4-oxo-2-(tetrahydro-pyran-4-yl)-1,3,8-triaza-spiro[4.5]dec-1-ene-8-sulfonyl]-ethyl}-benzyl)-carbamic acid tert-butyl ester]	37%
Cc1cc(N(C)C(N)=O)cc(C)c1CCS(=O)(=O)N1CCC2(CC1)N=C(C1CCC(=C(F)F)CC1)NC2=O (stereo not drawn) [Compound 1059, 1-(4-{2-[2-(4-Difluoromethylene-cyclohexyl)-4-oxo-1,3,8-triaza-spiro[4.5]dec-1-ene-8-sulfonyl]-ethyl}-3,5-dimethyl-phenyl)-1-methyl-urea]	116%
Cc1cc(C2=NC3(CCN(S(=O)(=O)/C=C/c4c(C)cc(C(=O)N5CCC(C)(O)CC5)cc4C)CC3)C(=O)N2)ccc1OC(F)(F)F [Compound 1214, 8-{(E)-2-[4-(4-hydroxy-4-methyl-piperidine-1-carbonyl)-2,6-dimethyl-phenyl]-ethenesulfonyl}-2-(3-methyl-4-trifluoromethoxy-phenyl)-1,3,8-triaza-spiro[4.5]dec-1-en-4-one]	79%
Cc1cc(C(=O)N2CCC(C)(O)CC2)cc(C)c1/C=C/S(=O)(=O)N1CCC2(CC1)N=C(c1ccc3c(c1)OCO3)NC2=O [Compound 1194, 2-benzo[1,3]dioxol-5-yl-8-{(E)-2-[4-(4-hydroxy-4-methyl-piperidine-1-carbonyl)-2,6-dimethyl-phenyl]-ethenesulfonyl}-1,3,8-triaza-spiro[4.5]dec-1-en-4-one]	62%
CC(=O)NCCNS(=O)(=O)c1ccc(CCS(=O)(=O)N2CCC3(CC2)N=C(C2CCCCC2)NC3=O)c(C)c1 [Compound 664, N-(2-{4-[2-(2-cyclohexyl-4-oxo-1,3,8-triaza-spiro[4.5]dec-1-ene-8-sulfonyl)-ethyl]-3-methyl-benzenesulfonylamino}-ethyl)-acetamide]	77%
CCOCc1cc(NC(C)=O)ccc1CCS(=O)(=O)N1CCC2(CC1)N=C(C1CCC(C)CC1)NC2=O (stereo not drawn) [Compound 753, N-(3-ethoxymethyl-4-{2-[2-(4-methyl-cyclohexyl)-4-oxo-1,3,8-triaza-spiro[4.5]dec-1-ene-8-sulfonyl]-ethyl}-phenyl)-acetamide]	104%
Cc1cc(C(=O)N2CCC(O)CC2)cc(C)c1/C=C/[S@TB4](=O)(=O)N1CCC2(CC1)N=C(c1ccc(F)c(OC(F)(F)F)c1)NC2=O [Compound 1159, 2-(4-fluoro-3-trifluoromethoxy-phenyl)-8-{(E)-2-[4-(4-hydroxy-piperidine-1-carbonyl)-2,6-dimethyl-phenyl]-ethenesulfonyl}-1,3,8-triaza-spiro[4.5]dec-1-en-4-one]	87%
CC(=O)OC[C@H](CN(C(C)=O)c1ccc(CCS(=O)(=O)N2CCC3(CC2)N=C(c2ccc(C(F)(F)F)cc2)NC3=O)c(C)c1)OC(C)=O [Compound 151, acetic acid (S)-1-acetoxymethyl-2-[acetyl-(3-methyl-4-{2-[4-oxo-2-(4-trifluoromethyl-phenyl)-1,3,8-triaza-spiro[4.5]dec-1-ene-8-sulfonyl]-ethyl}-phenyl)-amino]-ethyl ester]	53%

— patent publication US9169254B2, “Spiroimidazolone derivative” (Chugai Seiyaku Kabushiki Kaisha, priority 2009, dated 2015)
